Results from ChEMBL document CHEMBL5370629, “Probing the Interactions of Thiazole Abietane Inhibitors with the Human Serine Hydrolases ABHD16A and ABHD12” (ACS Med Chem Lett, 2023).

Tests used:
[1] = biological target: T1, Phosphatidylserine lipase ABHD16A (Mus musculus) (UniProt Q9Z1Q2); test: Inhibition of azido-fluorophosphonate probe binding to mouse ABHD16A expressed in HEK293T cells at 20 to 100 uM incubated for 1 hr followed by azido-fluorophosphonate addition and measured after 1 hr by fluorescent Western blotting analysis relative to control; assay type: cell-based; conditions: dose 20-100 µM, time 2.0 hrs
T1 sequence (whole entry): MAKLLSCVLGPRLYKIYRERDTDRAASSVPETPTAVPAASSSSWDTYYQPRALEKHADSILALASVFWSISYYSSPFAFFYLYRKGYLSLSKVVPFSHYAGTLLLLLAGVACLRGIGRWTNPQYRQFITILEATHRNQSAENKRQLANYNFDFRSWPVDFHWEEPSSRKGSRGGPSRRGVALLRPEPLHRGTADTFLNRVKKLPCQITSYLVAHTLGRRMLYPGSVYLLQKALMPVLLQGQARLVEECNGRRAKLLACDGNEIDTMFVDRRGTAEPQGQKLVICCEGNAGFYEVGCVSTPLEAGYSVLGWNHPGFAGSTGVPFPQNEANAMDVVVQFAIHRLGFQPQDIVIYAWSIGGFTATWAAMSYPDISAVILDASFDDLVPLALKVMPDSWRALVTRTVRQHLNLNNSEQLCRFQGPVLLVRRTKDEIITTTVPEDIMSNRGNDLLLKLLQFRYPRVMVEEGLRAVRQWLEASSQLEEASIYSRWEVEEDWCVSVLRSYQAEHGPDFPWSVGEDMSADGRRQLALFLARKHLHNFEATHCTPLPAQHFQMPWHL

[2] = biological target: T2, Lysophosphatidylserine lipase ABHD12 (Homo sapiens, UniProt Q8N2K0); test: Inhibition of azido-fluorophosphonate probe binding to human ABHD12 expressed in HEK293T cells at 20 to 100 uM incubated for 1 hr followed by azido-fluorophosphonate addition and measured after 1 hr by fluorescent Western blotting analysis; assay type: toxicity, cell-based; conditions: 2 h, dose 20-100 µM
T2 sequence (Q8N2K0 whole entry): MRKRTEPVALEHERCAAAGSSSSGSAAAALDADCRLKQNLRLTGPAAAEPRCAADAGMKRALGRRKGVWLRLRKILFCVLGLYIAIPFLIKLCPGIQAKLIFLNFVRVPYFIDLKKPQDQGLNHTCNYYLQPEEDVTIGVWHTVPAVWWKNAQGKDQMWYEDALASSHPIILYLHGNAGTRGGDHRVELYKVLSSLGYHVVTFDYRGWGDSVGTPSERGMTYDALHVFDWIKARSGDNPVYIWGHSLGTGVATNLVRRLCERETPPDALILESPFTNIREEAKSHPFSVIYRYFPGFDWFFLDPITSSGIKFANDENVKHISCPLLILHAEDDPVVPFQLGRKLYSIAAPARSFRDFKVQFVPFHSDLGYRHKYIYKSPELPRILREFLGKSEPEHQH

[3] = biological target: T1, Phosphatidylserine lipase ABHD16A (Mus musculus); test: Inhibition of azido-fluorophosphonate probe binding to mouse ABHD16A expressed in HEK293T cells at 200 uM incubated for 1 hr followed by azido-fluorophosphonate addition and measured after 1 hr by fluorescent Western blotting analysis relative to control; assay type: cell-based; conditions: time 2.0 hrs
[4] = biological target: T3, Phosphatidylserine lipase ABHD16A (Homo sapiens) (UniProt O95870); test: Inhibition of azido-fluorophosphonate probe binding to human ABHD16A expressed in HEK293T cells at 20 uM incubated for 1 hr followed by azido-fluorophosphonate addition and measured after 1 hr by fluorescent Western blotting analysis relative to control; assay type: cell-based; conditions: time 2.0 hrs
T3 sequence (whole entry): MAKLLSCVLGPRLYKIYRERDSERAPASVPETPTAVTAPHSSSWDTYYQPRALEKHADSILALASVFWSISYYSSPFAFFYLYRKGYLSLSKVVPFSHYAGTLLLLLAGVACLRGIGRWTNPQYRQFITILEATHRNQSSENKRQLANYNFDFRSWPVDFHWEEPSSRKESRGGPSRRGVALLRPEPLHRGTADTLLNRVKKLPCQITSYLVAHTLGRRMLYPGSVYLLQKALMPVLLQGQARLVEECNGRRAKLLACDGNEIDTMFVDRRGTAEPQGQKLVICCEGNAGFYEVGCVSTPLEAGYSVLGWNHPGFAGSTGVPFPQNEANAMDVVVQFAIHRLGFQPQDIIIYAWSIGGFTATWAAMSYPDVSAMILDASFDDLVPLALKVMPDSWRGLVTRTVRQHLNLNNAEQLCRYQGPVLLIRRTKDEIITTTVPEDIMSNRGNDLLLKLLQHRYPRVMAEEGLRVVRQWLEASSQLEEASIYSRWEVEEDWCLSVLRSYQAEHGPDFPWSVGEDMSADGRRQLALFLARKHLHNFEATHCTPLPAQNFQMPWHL

[5] = biological target: T3, Phosphatidylserine lipase ABHD16A (Homo sapiens); test: Inhibition of azido-fluorophosphonate probe binding to human ABHD16A expressed in HEK293T cells at 100 uM incubated for 1 hr followed by azido-fluorophosphonate addition and measured after 1 hr by fluorescent Western blotting analysis relative to control; assay type: cell-based; conditions: time 2.0 hrs
[6] = biological target: T1, Phosphatidylserine lipase ABHD16A (Mus musculus); test: Inhibition of azido-fluorophosphonate probe binding to mouse ABHD16A expressed in HEK293T cells at 20 uM incubated for 1 hr followed by azido-fluorophosphonate addition and measured after 1 hr by fluorescent Western blotting analysis relative to control; assay type: cell-based; conditions: time 2.0 hrs
[7] = biological target: T4, ABHD12 (lysophosphatidylserine lipase) (Homo sapiens, UniProt Q8N2K0); test: Inhibition of azido-fluorophosphonate probe binding to human ABHD12 expressed in HEK293T cells at 20 uM incubated for 1 hr followed by azido-fluorophosphonate addition and measured after 1 hr by fluorescent Western blotting analysis relative to control; assay type: toxicity, cell-based; conditions: HEK293T cells that express human ABHD12, probe azido-fluorophosphonate
T4 sequence (Q8N2K0 whole entry): T2 sequence (Q8N2K0 whole entry)

[8] = biological target: T4, ABHD12 (lysophosphatidylserine lipase); test: Inhibition of azido-fluorophosphonate probe binding to human ABHD12 expressed in HEK293T cells at 100 uM incubated for 1 hr followed by azido-fluorophosphonate addition and measured after 1 hr by fluorescent Western blotting analysis relative to control; assay type: toxicity, cell-based; conditions: HEK293T cells that express human ABHD12, probe azido-fluorophosphonate

| inhibition [1] [%] | inhibition [3] [%] | inhibition [4] [%] | inhibition [5] [%] | inhibition [6] [%] | SMILES | inhibition (INH) [2] | inhibition at 2 h, 20 µM [7] [%] | inhibition at 2 h, 100 µM [8] [%] |
| --- | --- | --- | --- | --- | --- | --- | --- | --- |
| – | 83.5 | 33.5 | 45.5 | 55.5 | CC(=O)c1nc(-c2cc3c(cc2C(C)C)CC[C@H]2[C@](C)(C(N)=O)CCC[C@]32C)cs1 | – | – | – |
| – | 66.4 | 35.7 | 48 | – | COC(=O)[C@]1(C)CCC[C@]2(C)c3cc(-c4csc([C@H](C)O)n4)c(C(C)C)cc3CC[C@@H]12 | – | 54 | 60.9 |
| – | 59.8 | – | 37.6 | – | CC(C)c1cc2c(cc1-c1csc([C@H](C)O)n1)[C@@]1(C)CCC[C@@](C)(C(N)=O)[C@@H]1CC2 | – | – | – |

Further lines, the compound ahead of its results:

| SMILES | inhibition [1] [%] | inhibition [3] [%] | inhibition [4] [%] | inhibition [5] [%] | inhibition [6] [%] | inhibition (INH) [2] | inhibition at 2 h, 20 µM [7] [%] | inhibition at 2 h, 100 µM [8] [%] |
| --- | --- | --- | --- | --- | --- | --- | --- | --- |
| CC(C)c1cc2c(cc1-c1csc([C@H](C)O)n1)[C@@]1(C)CCCC(C)(C)[C@@H]1CC2 | 34.1 | – | – | – | – | Not Active | – | – |
| COC(=O)[C@]1(C)CCC[C@]2(C)c3cc(-c4csc(C)n4)c(C(C)C)cc3C(=O)C[C@@H]12 | – | 73.2 | 32.2 | 55.1 | – | – | – | – |
| COC(=O)[C@]1(C)CCC[C@]2(C)c3cc(-c4csc(COC(C)=O)n4)c(C(C)C)cc3CC[C@@H]12 | – | 62.9 | – | 48.4 | – | – | – | – |
